Test results from ChEMBL document CHEMBL4041540, “In silico selection and cell-based characterization of selective and bioactive compounds for androgen-dependent prostate cancer cell” (Bioorg Med Chem Lett, 2017).
Calls of active or inactive are those of the source. No cut-off for these calls is given here.

Legend:
[1] = target: T1, Androgen receptor (Homo sapiens) (UniProt P10275); test: Inhibition of AR signaling pathway in testosterone-stimulated human LNCAP cells assessed as cell growth inhibition at 100 uM after 6 days by MTT assay relative to control
T1 sequence (whole entry): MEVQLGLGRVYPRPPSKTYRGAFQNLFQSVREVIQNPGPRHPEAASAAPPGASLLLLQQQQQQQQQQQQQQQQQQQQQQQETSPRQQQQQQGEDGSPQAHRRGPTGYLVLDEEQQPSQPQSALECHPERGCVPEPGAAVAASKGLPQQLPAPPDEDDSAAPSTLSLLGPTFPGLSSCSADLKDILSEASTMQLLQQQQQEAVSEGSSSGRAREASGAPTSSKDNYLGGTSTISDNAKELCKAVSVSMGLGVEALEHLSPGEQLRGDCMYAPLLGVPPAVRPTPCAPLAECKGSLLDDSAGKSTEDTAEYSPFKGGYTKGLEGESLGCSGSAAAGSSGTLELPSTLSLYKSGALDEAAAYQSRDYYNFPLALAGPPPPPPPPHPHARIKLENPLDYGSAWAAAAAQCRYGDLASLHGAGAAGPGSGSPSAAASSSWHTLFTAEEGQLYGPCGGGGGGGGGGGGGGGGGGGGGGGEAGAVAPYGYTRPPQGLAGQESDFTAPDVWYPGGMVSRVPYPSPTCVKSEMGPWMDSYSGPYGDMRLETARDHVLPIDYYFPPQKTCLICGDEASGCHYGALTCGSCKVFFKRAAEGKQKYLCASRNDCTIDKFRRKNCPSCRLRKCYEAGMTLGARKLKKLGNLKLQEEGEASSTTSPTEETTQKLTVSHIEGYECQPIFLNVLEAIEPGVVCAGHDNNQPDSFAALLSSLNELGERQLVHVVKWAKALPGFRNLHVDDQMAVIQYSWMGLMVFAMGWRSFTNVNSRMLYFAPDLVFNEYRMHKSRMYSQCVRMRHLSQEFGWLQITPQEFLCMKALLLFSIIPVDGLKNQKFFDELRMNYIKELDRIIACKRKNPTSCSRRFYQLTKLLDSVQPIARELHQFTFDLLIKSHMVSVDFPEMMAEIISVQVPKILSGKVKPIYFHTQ

[2] = tested on: LNCaP; test: Growth inhibition of human LNCAP cells at 100 uM after 72 hrs by MTT assay relative to control; type: functional; conditions: read-out: GI
[3] = tested on: PC-3; test: Growth inhibition of human PC3 cells at 100 uM after 72 hrs by MTT assay relative to control; type: functional; conditions: PC-3, 72 h, read-out: GI
[4] = tested on: DU-145; test: Growth inhibition of human DU145 cells at 100 uM after 72 hrs by MTT assay relative to control; type: functional; conditions: DU-145, 72 h, read-out: GI
[5] = Growth inhibition of Balb/c mouse 3T3 clone A31 cells after 72 hrs by MTT assay; type: cell-based; conditions: Balb/c 3T3 clone A31 cells
[6] = Growth inhibition of Balb/c mouse 3T3 clone A31 cells at 250 uM after 72 hrs by MTT assay relative to control; type: cell-based; conditions: Balb/c 3T3 clone A31 cells, read-out: GI
[7] = Selectivity index, ratio of GI50 for Balb/c mouse 3T3 clone A31 cells to GI50 for AR signaling pathway in testosterone-stimulated human LNCAP cells assessed as cell growth inhibition
[8] = tested on: LNCaP; test: Cell cycle arrest in testosterone-stimulated human LNCAP cells assessed as G0 phase accumulation at 8 uM after 3 days (reference value: 3.9%); type: functional
[9] = tested on: LNCaP; test: Cell cycle arrest in testosterone-stimulated human LNCAP cells assessed as G1 phase accumulation at 8 uM after 3 days (reference value: 73.8%); type: functional
[10] = tested on: LNCaP; test: Cell cycle arrest in testosterone-stimulated human LNCAP cells assessed as S phase accumulation at 8 uM after 3 days (reference value: 14.1%); type: functional
[11] = tested on: LNCaP; test: Cell cycle arrest in testosterone-stimulated human LNCAP cells assessed as G2/M phase accumulation at 8 uM after 3 days (reference value: 8.2%); type: functional
[12] = tested on: LNCaP; test: Cell cycle arrest in testosterone-stimulated human LNCAP cells assessed as G0 phase accumulation at 8 uM after 5 days (reference value: 8.2%); type: functional
[13] = tested on: LNCaP; test: Cell cycle arrest in testosterone-stimulated human LNCAP cells assessed as G1 phase accumulation at 8 uM after 5 days (reference value: 63.4%); type: functional
[14] = tested on: LNCaP; test: Cell cycle arrest in testosterone-stimulated human LNCAP cells assessed as S phase accumulation at 8 uM after 5 days (reference value: 15.1%); type: functional
[15] = tested on: LNCaP; test: Cell cycle arrest in testosterone-stimulated human LNCAP cells assessed as G2/M phase accumulation at 8 uM after 5 days (reference value: 13.3%); type: functional
[16] = target: T1, Androgen receptor (Homo sapiens)
Description: Inhibition of AR signaling pathway in testosterone-stimulated human LNCAP cells assessed as cell growth inhibition after 6 days by MTT assay

[17] = target: T1, Androgen receptor (Homo sapiens); remark: listed apart in the source
Description: Inhibition of AR signaling pathway in testosterone-stimulated human LNCAP cells assessed as cell growth inhibition by flow cytometry

Row | SMILES | inhibition [1] | inhibition of growth at 100 µM [2] | inhibition of growth at 100 µM [3] | inhibition of growth at 100 µM [4] | other results
1 | O=C(CSc1ncnc2c1[nH]c1ccccc12)Nc1cccc(F)c1 | inactive | ≤ 50% | ≤ 50% | ≤ 50% | –
2 | CNC(=O)c1ccc(N2C(=S)N(c3ccc(C#N)c(C(F)(F)F)c3)C(=O)C2(C)C)cc1F [ENZALUTAMIDE] | – | – | – | – | GI50 at 72 h [5]: 27.5 µM
3 | O=C(CSc1ncnc2c1[nH]c1ccccc12)Nc1ccc(F)cc1 | inactive | ≤ 50% | ≤ 50% | ≤ 50% | –
4 | N#Cc1ccc(NC(=O)COC(=O)Cc2cccs2)cc1Cl | Active | ≤ 50% | ≤ 50% | ≤ 50% | –
5 | N#Cc1ccc(NC(=O)COC(=O)Cc2ccc(F)cc2)cc1Cl | inactive | ≤ 50% | ≤ 50% | ≤ 50% | –
6 | N#Cc1ccc(CN2CCN(C(=O)C3CCCC3)CC2)c(F)c1 | inactive | ≤ 50% | ≤ 50% | ≤ 50% | –
7 | Cc1ccc2[nH]c3c(SCC(=O)Nc4cccc(C#N)c4)ncnc3c2c1 | Active | ≤ 50% | ≤ 50% | ≤ 50% | inhibition at 72 h, 250 µM [6]: 20%; RatioGI50 [7]: >11; Activity [8]: 1.9%; Activity [9]: 64.6%; Activity [10]: 18.4%; Activity [11]: 15.1%; Activity [12]: 6.3%; Activity [13]: 68.7%; Activity [14]: 15.7%; Activity [15]: 9.3%; GI50 [16]: 22.4 µM; GI50 [17]: 22.6 µM

Second part, led by results:

Row | inhibition [1] | SMILES | inhibition of growth at 100 µM [2] | inhibition of growth at 100 µM [3] | inhibition of growth at 100 µM [4] | other results
8 | inactive | N#Cc1ccc(C(=O)N2CCN(c3ccc(F)cc3)CC2)c(F)c1 | ≤ 50% | ≤ 50% | ≤ 50% | –
9 | inactive | N#Cc1ccc(CN2CCN(C(=O)c3ccc(F)c(F)c3)CC2)cc1 | ≤ 50% | ≤ 50% | ≤ 50% | –
10 | inactive | N#Cc1cc(F)c(N2CCN(C(=O)c3ccsc3)CC2)c(F)c1 | ≤ 50% | ≤ 50% | ≤ 50% | –
11 | inactive | N#Cc1ccc(CN2CCN(C(=O)Cn3ccc(=O)[nH]c3=O)CC2)cc1 | ≤ 50% | ≤ 50% | ≤ 50% | –
12 | inactive | N#Cc1ccc(NC(=O)COC(=O)Cc2ccc(Cl)c(Cl)c2)cc1 | ≤ 50% | ≤ 50% | ≤ 50% | –
13 | inactive | CC1CCCN(C(=O)C2CCN(c3ccc(C#N)cc3F)CC2)C1 (stereo unspecified) | ≤ 50% | ≤ 50% | ≤ 50% | –
14 | inactive | Cc1cc(NC(=O)N2CCN(c3ccc(C#N)cc3F)CC2)on1 | ≤ 50% | ≤ 50% | ≤ 50% | –
15 | inactive | N#Cc1ccc(NC(=O)CSc2nc3ccc([N+](=O)[O-])cc3s2)cc1 | ≤ 50% | ≤ 50% | ≤ 50% | –
16 | inactive | N#Cc1ccc(N2CCN(C(=O)c3ccc(=O)[nH]c3)CC2)c(F)c1 | ≤ 50% | ≤ 50% | ≤ 50% | –
17 | inactive | CC(C(=O)Nc1ccc(C#N)cc1)N1CCN(c2ccc(O)cc2)CC1 (stereo unspecified) | ≤ 50% | ≤ 50% | ≤ 50% | –
18 | inactive | CC(OC(=O)Cc1cc2c(s1)CCC2)C(=O)Nc1ccc(C#N)cc1 (stereo unspecified) | ≤ 50% | ≤ 50% | ≤ 50% | –
